Data reported in US12383566B2, “Inhibition of SLC transporter activity or expression to attenuate anthracycline-induced cardiotoxicity” (Northwestern University, priority 2021, dated 2025).

Columns and labels:
[1] = system: eight cancer cell lines (HEPG2, DLD1, LNCAP, SK-UT-1, HeLa, U2OS, Hs 578T, MDA-MB-231) and MCF breast cancer cell line; assay: Cell viability of cancer cell lines after doxorubicin and desipramine co-treatment; format: cell-based, human; conditions: eight cancer cell lines (breast, liver, colorectal, prostate, uterus, cervix, bone)
Procedure: (§1) FIGS. 5A, 5B, 5C, 5D, 5E, 5F, and 5G. […] All drugs were used at 3 μM. […] LD50, median lethal dose. […] F, Ventricular fractional shortening at baseline, 1-, 2-, 3-weeks post treatment. […] For (D and G) log-logistic non-linear regression model was used to estimate the value of the four parameters, and t-statistic was used to test for significant difference in LD50 between different groups.
Breast cancer cell lines.

[2] = system: hiPSC-CMs; assay: Flow cytometry-based doxorubicin uptake quantification (DOX intrinsic fluorescence); format: cell-based, human; conditions: drug 3 μM, doxorubicin 3 μM
Procedure: Patient-specific doxorubicin-induced cardiotoxicity (DIC) characterization.
Flow cytometry. hiPSCs were dissociated with TrypLE Express (Gibco) for 3 min at RT and 1×10^6 cells were transferred to flow cytometry tubes (Falcon). For staining of surface marker, cells were stained 5 mg ml^−1 (0.5%) BSA (Sigma) in DPBS using 1:20 mouse IgG3 SSEA4-488 (BD Biosciences, 560308) for 30 min at RT then washed twice in DPBS by centrifugation. For intracellular staining, cells were fixed with 4% PFA for 20 min at RT, washed twice with DPBS, and permeabilized with 1% saponin for 15 min at RT, and stained using 1:20 mouse IgG1 POU5F1-647 (BD Biosciences, 560307), and mouse IgG1 NANOG-647 (BD Biosciences, 561300) for 30 min at RT then washed. Isotype controls mouse IgG3-488 (BD Biosciences, 563636) and mouse IgG1-647 (BD Biosciences, 565571) were used to establish gating. Cardiomyocytes were dissociated with Liberase TH as described above, fixed and permeabilized as above, and stained using 1:100 mouse monoclonal IgG1 TNNT2-647 (BD Biosciences, 565744) for 30 min at RT and washed again. Isotype controls mouse IgG1-647 (BD Biosciences, 565571) were used to establish gating. […] All cells were analyzed using a CytoFLEX (Beckman Coulter) with CytExpert 2.0 software.
Flow cytometry-based doxorubicin uptake quantification. On day 14, cardiomyocytes were dissociated and then plated on 12-well plate (2×10^6 per well). […] Cells auto-fluorescence was assayed before doxorubicin treatment and serves as baseline fluorescence.

[3] = in vivo; cited from earlier work
[4] = system: hiPSC-CMs; assay: Prestwick drug library screening for cardioprotection against DOX (10 μM, 72 h) by cell viability; format: cell-based, human
Procedure: as §1
(§2) Next, we sought to expand our screening for novel cardioprotectants by testing the cardioprotective role of the Prestwick drug library that includes 1219 drugs.
(§3) 384-well plate-based cell viability, caspase 3/7 activity assays. […] Luminescence was measured using a VarioSkan Lux Multi-Mode Reader (Thermo Scientific) with an integration time of 0.25 sec. Apoptosis was measured using Caspase 3/7-Glo (Promega) respectively according to manufacturer's instructions with an integration time of 1 sec. 10 μM staurosporine (MedChemExpress) was used as a positive control. Data were analyzed using Prism 7.0 software (GraphPad) using standard dose-response guidelines.

[5] = system: Mouse model of doxorubicin-induced cardiomyopathy; assay: Mouse model of doxorubicin-induced cardiomyopathy, echocardiographic evaluation; format: in vivo, C57BL/6J mice; conditions: desipramine 20 mg kg^−1 day^−1 infusion, doxorubicin 3 mg kg^−1 ip twice weekly, three weeks, P<0.05
Excerpt: Procedures followed were in accordance with Stanford University's institutional guidelines. […] For the control group, we treated mice with corn oil in the same schedule as desipramine administration. We recorded an echocardiogram once a week (day 0, day 7, day 14, and day 21) and terminated the experiment at day 21.
For the control group, we treated mice with corn oil in the same schedule as desipramine administration. We recorded an echocardiogram once a week (day 0, day 7, day 14, and day 21) and terminated the experiment at day 21.
Echocardiographic evaluation. Mice were studied at baseline and weekly during the protocol under light anesthesia with isoflurane (induction 3%, maintenance 1.5%). 2D images in the parasternal short axis were obtained with a GE Vivid 7 ultrasound system (GE Healthcare) equipped with a 13 MHz transducer. Left ventricular end-systolic (LVESD) and end-diastolic (LVEDD) dimensions were measured and left ventricular fractional shortening (FS) was calculated.

[6] = system: hiPSC-CMs; assay: Validation of top FDA-approved cardioprotectants against 10 log-doses of doxorubicin (viability LD50); format: cell-based, human; conditions: drug 3 μM, 72 h
Procedure: as §1, §2, §3

[7] = system: sodium channel; conditions: among its group (tricyclic antidepressants); cited from earlier work
[8] = chronic use; cited from earlier work

CNCCCN1c2ccccc2CCc2ccccc21 [desipramine, 3-(5,6-dihydrobenzo[b][1]benzazepin-11-yl)-N-methylpropan-1-amine]
effect of co-treatment on anticancer efficacy of DOX [1]: did not impede the anticancer efficacy of DOX | DOX uptake in cells co-treated with drug plus doxorubicin as compared to doxorubicin only ([2]; after 1 h (P=0.008)): significantly lower | DOX uptake in cells co-treated with drug plus doxorubicin as compared to doxorubicin only ([2]; after 3 h (P=0.04)): significantly lower | typical therapeutic concentration [3]: 100 to 300 ng/mL | rank among cardioprotective drugs in Prestwick library screening ([4]; drug 3 μM (24 h pre-treatment + co-treatment)): top ten significant cardio-protectants | protection against DOX-induced cardiomyocyte death ([4]; drug 3 μM, vs DOX alone, P=0.007): 2.5 fold | cardiac function (fractional shortening) attenuation by doxorubicin with drug compared with vehicle [5]: significantly less attenuated | LD50 of doxorubicin with cardioprotective drug co-treatment [6]: 10.66 µM | sodium channel blockade [7]: most potent sodium channel blocker among its group | cardiotoxicity [8]: causing cardiotoxicity when used chronically
